Patent US10449216B2, “Modulating drug effects against metabotropic glutamate receptor with extracellular calcium” (GEORGIA STATE UNIVERSITY RESEARCH FOUNDATION, INC., priority 2013, dated 2019)
pEC50, pKd: −log10 of the molar value.

How the values were obtained:
WT mGluR1α [1] = molecular target: T1, WT mGluR1α (Rattus norvegicus, UniProt P23385); assay: [^3H]-L-Quis binding to membranes of HEK293 cells expressing WT mGluR1α
T1 construct: expressed in transfected cells; host or cells: HEK293

mGluR1α E325I = molecular target: T2, mGluR1α E325I (Rattus norvegicus, UniProt P23385, E325I); assay: [^3H]-L-Quis binding to membranes of HEK293 cells expressing E325I; conditions: with 300 nM [^3H]-L-Quis, read-out: KD, [Ca^2+]o-binding affinity of mGluR1α
T2 construct: expressed in transfected cells; host or cells: HEK293
T2 sequence (P23385 19-1199 E325I): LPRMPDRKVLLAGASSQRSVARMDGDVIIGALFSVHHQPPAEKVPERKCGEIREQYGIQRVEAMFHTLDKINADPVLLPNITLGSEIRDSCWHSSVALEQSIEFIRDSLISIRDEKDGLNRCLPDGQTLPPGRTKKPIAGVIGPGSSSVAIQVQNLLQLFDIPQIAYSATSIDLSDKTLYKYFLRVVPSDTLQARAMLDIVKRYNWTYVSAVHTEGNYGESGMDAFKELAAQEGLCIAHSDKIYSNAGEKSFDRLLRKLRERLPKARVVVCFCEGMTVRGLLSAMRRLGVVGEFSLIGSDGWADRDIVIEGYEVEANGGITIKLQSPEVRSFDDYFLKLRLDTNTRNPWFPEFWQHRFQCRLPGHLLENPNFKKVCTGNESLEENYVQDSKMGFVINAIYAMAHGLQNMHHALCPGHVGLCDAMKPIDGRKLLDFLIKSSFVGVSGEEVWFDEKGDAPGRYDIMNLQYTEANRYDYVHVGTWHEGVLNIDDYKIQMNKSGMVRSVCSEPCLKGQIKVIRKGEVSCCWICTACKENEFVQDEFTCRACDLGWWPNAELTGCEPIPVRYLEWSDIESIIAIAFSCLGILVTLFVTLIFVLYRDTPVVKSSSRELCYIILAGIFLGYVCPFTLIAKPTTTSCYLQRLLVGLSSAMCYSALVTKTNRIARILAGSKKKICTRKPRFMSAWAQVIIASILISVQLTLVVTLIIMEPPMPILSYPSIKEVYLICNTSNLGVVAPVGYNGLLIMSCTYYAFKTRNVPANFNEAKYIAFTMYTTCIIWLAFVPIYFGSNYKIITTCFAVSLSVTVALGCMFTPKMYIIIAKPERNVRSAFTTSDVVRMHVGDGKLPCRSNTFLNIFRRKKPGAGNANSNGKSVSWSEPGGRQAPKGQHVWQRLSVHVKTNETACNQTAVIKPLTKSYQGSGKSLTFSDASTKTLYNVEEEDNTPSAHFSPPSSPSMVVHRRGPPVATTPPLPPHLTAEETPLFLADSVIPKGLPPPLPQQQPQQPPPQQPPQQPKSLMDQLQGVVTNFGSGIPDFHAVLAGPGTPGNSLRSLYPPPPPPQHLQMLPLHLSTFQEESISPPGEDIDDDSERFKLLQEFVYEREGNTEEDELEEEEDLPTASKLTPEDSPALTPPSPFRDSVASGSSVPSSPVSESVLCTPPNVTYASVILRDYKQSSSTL

mGluR5 = mGluR5 (Rattus norvegicus, UniProt P31424); assay: Intracellular Ca^2+ response/oscillation in mGluR5 transfected HEK293 cells; type: cell-based; set-up: expressed in transfected cells; host or cells: HEK293; conditions: no other agonist
Chain of mGluR5 (P31424 21-1203): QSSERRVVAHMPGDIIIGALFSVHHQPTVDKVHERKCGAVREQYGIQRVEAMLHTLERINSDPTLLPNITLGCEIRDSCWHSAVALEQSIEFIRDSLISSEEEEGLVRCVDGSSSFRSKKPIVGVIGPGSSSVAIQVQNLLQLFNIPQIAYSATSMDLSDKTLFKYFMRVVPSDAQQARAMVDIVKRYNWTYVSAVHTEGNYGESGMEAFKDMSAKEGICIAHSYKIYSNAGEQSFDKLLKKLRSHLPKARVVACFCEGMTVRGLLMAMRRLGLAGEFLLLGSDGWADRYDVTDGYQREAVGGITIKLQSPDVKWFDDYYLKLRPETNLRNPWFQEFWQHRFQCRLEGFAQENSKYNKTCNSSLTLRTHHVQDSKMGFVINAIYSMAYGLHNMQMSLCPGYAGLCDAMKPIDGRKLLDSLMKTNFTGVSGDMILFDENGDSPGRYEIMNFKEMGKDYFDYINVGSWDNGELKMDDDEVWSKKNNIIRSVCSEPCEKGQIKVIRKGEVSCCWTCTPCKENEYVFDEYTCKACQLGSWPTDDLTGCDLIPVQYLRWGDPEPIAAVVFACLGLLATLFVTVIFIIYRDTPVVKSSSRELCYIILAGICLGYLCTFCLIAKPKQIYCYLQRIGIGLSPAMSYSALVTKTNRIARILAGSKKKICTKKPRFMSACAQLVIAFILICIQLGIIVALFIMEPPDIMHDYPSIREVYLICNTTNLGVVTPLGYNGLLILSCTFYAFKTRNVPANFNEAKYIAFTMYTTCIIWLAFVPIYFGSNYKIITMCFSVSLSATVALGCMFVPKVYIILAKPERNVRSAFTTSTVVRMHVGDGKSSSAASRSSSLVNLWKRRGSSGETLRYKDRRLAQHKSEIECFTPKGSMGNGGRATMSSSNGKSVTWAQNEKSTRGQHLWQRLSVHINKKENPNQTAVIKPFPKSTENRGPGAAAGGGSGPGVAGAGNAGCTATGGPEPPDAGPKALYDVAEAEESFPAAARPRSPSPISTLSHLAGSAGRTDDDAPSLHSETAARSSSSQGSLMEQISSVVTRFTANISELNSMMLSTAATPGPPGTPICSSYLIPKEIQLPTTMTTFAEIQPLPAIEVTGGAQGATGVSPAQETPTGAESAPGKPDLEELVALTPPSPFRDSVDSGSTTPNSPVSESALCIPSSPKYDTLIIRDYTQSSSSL
Procedure: HEK293 cells were fed on a Dulbecco's Modified Eagle Medium (DMEM) and 10% fetal bovine serum (Invitrogen) and cultured at 37° C. in a humidified incubator with 5% CO2. One day before transfection, HEK293 cells were grown on 22×44 mm coverslips and then were transfected with mGluR5 plasmid (received as a gift from Dr. Randy Hall, Emory University, Atlanta, Ga.) with the aid of lipofectamine 2000 (Invitrogen). mGluR5 transfected HEK293 cells were grown for 48 hours and then loaded with 4 µM Fura-2 AM in loading buffer containing 10 mM HEPES (pH 7.4), 140 mM NaCl, 5 mM KCl, 0.55 mM MgCl2 for 30 minutes at 37° C. The coverslips were then mounted in a bathing chamber on the stage of a fluorescence microscope. […] The ratio of fluorescence emitted at 510 nm resulting from excitation at 340 or 380 nm was analyzed to obtain the [Ca^2+]i response as a function of changes in [Ca^2+]o.
HEK293 cells were cultured and transfected as described above. Intracellular Ca^2+ concentration was recorded using the method as described previously. […]

mGluR1 = mGluR1 (Rattus norvegicus, UniProt P23385); assay: Fura-2 intracellular calcium release in mGluR1-transfected HEK293 cells (Example 4); type: cell-based; set-up: expressed in transfected cells; host or cells: HEK293; conditions: 3 mM/6 mM calcium, after wash with 0 mM calcium
Chain of mGluR1 (P23385 19-1199): as the sequence (P23385 19-1199 E325I) above, with I307E counted along it
Procedure: The coverslips with transfected, Fura-2-loaded HEK293 cells were placed diagonally in 3-ml quartz cuvettes containing bath buffer. The fluorescence spectra at 510 nm were measured during stepwise increases in [Ca2+]o with alternating excitation at 340 or 380 nm. The ratio of the intensities of the emitted light at 510 nm when excited at 340 or 380 nm was used to monitor changes in [Ca2+]i. mCherry was genetically fused into mGluR1 pcDNA. so cells have fluorescent intensity at 550 nm was selected for further analysis.

mGluR1α D322I = molecular target: T3, mGluR1α D322I (Rattus norvegicus, UniProt P23385, D322I); assay: [^3H]-L-Quis binding to membranes of HEK293 cells expressing D322I; conditions: in the presence of 30 nM [^3H]-L-Quis, read-out: KD, [Ca^2+]o-binding affinity of mGluR1α
T3 construct: expressed in transfected cells; host or cells: HEK293
T3 sequence (P23385 19-1199 D322I): as the sequence (P23385 19-1199 E325I) above, with D304I, I307E counted along it

WT mGluR1α [2] = molecular target: T1, WT mGluR1α; assay: Single cell Fura-2 [Ca^2+]i response in HEK293 cells transiently transfected with WT mGluR1α; type: cell-based; conditions: for Response to [Ca^2+]o: Maximal Response / Max. Res. to Ca^2+: normalized to maximal response of WT mGluR1α to L-Glu
Procedure: The methods for measuring [Ca^2+]i responses were as described above. In the presence of (s)-MCPG, the cells were incubated with 0.5 mM (s)-MCPG in a saline buffer for 30 more minutes after Fura-2 loading.
Fura-2AM was used for monitoring [Ca^2+]i in real time as described above. […] Cells loaded with Fura-2AM were mounted onto a chamber perfused with saline buffer.

T1 sequence (P23385 19-1199): as the sequence (P23385 19-1199 E325I) above, with I307E counted along it

## [Ca+2] [[Ca^2+]o]
WT mGluR1α [1]; WT, in the presence of 30 nM [^3H]-L-Quis, read-out: KD, [Ca^2+]o-binding affinity of mGluR1α
  pKd: 3.52
WT mGluR1α [1]; wild type receptor, read-out: EC50 of [Ca^2+]o for enhancing L-Quis-binding
  pEC50: ~3.52
mGluR1α E325I
  pKd: < 1.70
mGluR5
  Extracellular Ca^2+ concentration change that started to induce intracellular oscillation: 0.05 mM
mGluR1
  Activation of mGluR1 by calcium alone: no response was observed
mGluR1α D322I
  pKd: 3.22
WT mGluR1α [2]; 0 versus 0.5 mM MCPG
  Fold increase of the EC50 for [Ca^2+]o: ~1.7 fold
WT mGluR1α [2]; 40 μM CPCCOEt, read-out: EC50 of mGluR1α for [Ca^2+]o
  pEC50: 1.54
WT mGluR1α [2]; 0.5 mM (s)-MCPG
  Response to [Ca^2+]o: nHill: 2.6
  Response to [Ca^2+]o: Maximal Response: 67 ± 2
WT mGluR1α [2]; 0.5 mM (s)-MCPG, read-out: Response to [Ca^2+]o: EC50
  pEC50: 2.22
WT mGluR1α [2]; (s)-MCPG 0
  Response to [Ca^2+]o: nHill: 6.4
  Response to [Ca^2+]o: Maximal Response: 85 ± 2
WT mGluR1α [2]; (s)-MCPG 0, read-out: Response to [Ca^2+]o: EC50
  pEC50: 2.46
WT mGluR1α [2]; CPCCOEt 0
  Response to [Ca^2+]o: nHill: 6.4
  Response to [Ca^2+]o: Maximal Response: 85 ± 2%
WT mGluR1α [2]; CPCCOEt 0, read-out: Response to [Ca^2+]o: EC50
  pEC50: 2.46
WT mGluR1α [2]; CPCCOEt Conc. 5 (μM)
  Response to [Ca^2+]o: nHill: 1.3
  Response to [Ca^2+]o: Maximal Response: 75 ± 3%
WT mGluR1α [2]; CPCCOEt Conc. 5 (μM), read-out: Response to [Ca^2+]o: EC50
  EC50: 7600 µM
WT mGluR1α [2]; CPCCOEt Conc. 40 (nM)
  Response to [Ca^2+]o: nHill: 1.1
  Response to [Ca^2+]o: Maximal Response: 60 ± 3%
WT mGluR1α [2]; Ro 67-4853 0 nM
  Max. Res. to Ca^2+: 85 ± 2
WT mGluR1α [2]; Ro 67-4853 0 nM, read-out: EC50 of Ca^2+
  pEC50: 2.46
WT mGluR1α [2]; Ro 67-4853 30 nM
  Max. Res. to Ca^2+: 83 ± 6
WT mGluR1α [2]; Ro 67-4853 30 nM, read-out: EC50 of Ca^2+
  pEC50: 2.68
WT mGluR1α [2]; Ro 67-4853 300 nM
  Max. Res. to Ca^2+: 83 ± 2
WT mGluR1α [2]; Ro 67-4853 300 nM, read-out: EC50 of Ca^2+
  pEC50: 3.15
WT mGluR1α [2]; in the presence of 5 μM CPCCOEt, read-out: EC50 of mGluR1α for [Ca^2+]o
  pEC50: 1.83
